# From US12702715B2, “Targeted RNA degradation allows precision repurposing of protein-targeted small molecule medicines to RNA” (University of Florida Research Foundation, Incorporated, priority 2020, dated 2026)
# Entries after “also recorded” stand apart in the source; their conditions may differ.
# Key:
# [1] = test system: miR-21; assay: RT-qPCR of mature miR-21 levels in MDA-MB-231 cells; assay type: cell-based, human; conditions: for reduction of mature miR-21 levels: 1 μM; for mature miR-21 levels: MDA-MB-231, RT-qPCR
# Procedure: Cell Culture. Cells were cultured at 37° C. and 5% CO2. […] For compound treatment, compound stocks either in DMSO or water were diluted in growth medium and added to cells for the indicated time. […] After transfection, the medium was replaced with growth medium containing the compound of interest, prepared as described above. The RNase L-targeting siRNA or a control siRNA was transfected with Lipofectamine RNAiMAX reagent (Invitrogen) per the manufacturer's protocol.
# (§1) RNA Isolation and Quantitative Real-Time PCR (RT-qPCR). After treatment, total RNA was extracted and purified by using the Zymo Quick-RNA mini prep kit per the manufacturer's protocol. Reverse Transcription (RT) for mature miRNAs as well as pri- and pre-miR-21 was completed on 200 ng of RNA by using a miScript 11 RT kit (QIAGEN) according to manufacturer's protocol. RT of mRNAs was performed by using QScript kit (Quanta Bio). An Applied Biosystems QS5 384-well PCR system was used to complete qPCR experiments using Power Sybr Green Mater Mix (Life Technologies) as described previously^6.
# [2] = test system: pre-miR-21; assay: RT-qPCR of pre-miR-21 levels in MDA-MB-231 cells; assay type: cell-based, human; conditions: for pre-miR-21 levels: MDA-MB-231, RT-qPCR
# Procedure: Cell Culture. Cells were cultured at 37° C. and 5% CO2. MDA-MB-231 cells (HTB-26, ATCC) were cultured in RMPI 1640 medium with L-glutamine & 25 mM HEPES supplemented with 1× Antibiotic/Antimycotic solution (Corning) and 10% FBS. MCF-10A cells (CRL-10317, ATCC) were cultured in 1×DMEM/F12 50/50 with L-glutamine & 15 mM HEPES (Corning) supplemented with 20% FBS, 1× Antibiotic/Antimycotic solution, 20 ng/mL human epidermal growth factor (Pepro Tech, Inc.), 10 μg/mL insulin (Sigma-Aldrich), and […] hydrocortisone (Pfaltz & Bauer). For compound treatment, compound stocks either in DMSO or water were diluted in growth medium and added to cells for the indicated time. Plasmid DNA to overexpress pre-miR-21 in pcDNA 3.1 (Addgene 21114) or a plasmid DNA encoding the pre-miR-21 mutant (custom purchased from GenScript USA, Inc.) was transfected with jetPRIME per the manufacturer's protocol. After transfection, the medium was replaced with growth medium containing the compound of interest, prepared as described above. The RNase L-targeting siRNA or a control siRNA was transfected with Lipofectamine RNAiMAX reagent (Invitrogen) per the manufacturer's protocol.
# as §1
# [3] = molecular target: T1, FLT3 (Homo sapiens, UniProt P36888); assay: Cellular Chem-CLIP/C-Chem-CLIP to study occupancy of an RTK; assay type: cell-based
# T1 construct: endogenous in cells; host or cells: MDA-MB-231
# T1 sequence (P36888 27-993): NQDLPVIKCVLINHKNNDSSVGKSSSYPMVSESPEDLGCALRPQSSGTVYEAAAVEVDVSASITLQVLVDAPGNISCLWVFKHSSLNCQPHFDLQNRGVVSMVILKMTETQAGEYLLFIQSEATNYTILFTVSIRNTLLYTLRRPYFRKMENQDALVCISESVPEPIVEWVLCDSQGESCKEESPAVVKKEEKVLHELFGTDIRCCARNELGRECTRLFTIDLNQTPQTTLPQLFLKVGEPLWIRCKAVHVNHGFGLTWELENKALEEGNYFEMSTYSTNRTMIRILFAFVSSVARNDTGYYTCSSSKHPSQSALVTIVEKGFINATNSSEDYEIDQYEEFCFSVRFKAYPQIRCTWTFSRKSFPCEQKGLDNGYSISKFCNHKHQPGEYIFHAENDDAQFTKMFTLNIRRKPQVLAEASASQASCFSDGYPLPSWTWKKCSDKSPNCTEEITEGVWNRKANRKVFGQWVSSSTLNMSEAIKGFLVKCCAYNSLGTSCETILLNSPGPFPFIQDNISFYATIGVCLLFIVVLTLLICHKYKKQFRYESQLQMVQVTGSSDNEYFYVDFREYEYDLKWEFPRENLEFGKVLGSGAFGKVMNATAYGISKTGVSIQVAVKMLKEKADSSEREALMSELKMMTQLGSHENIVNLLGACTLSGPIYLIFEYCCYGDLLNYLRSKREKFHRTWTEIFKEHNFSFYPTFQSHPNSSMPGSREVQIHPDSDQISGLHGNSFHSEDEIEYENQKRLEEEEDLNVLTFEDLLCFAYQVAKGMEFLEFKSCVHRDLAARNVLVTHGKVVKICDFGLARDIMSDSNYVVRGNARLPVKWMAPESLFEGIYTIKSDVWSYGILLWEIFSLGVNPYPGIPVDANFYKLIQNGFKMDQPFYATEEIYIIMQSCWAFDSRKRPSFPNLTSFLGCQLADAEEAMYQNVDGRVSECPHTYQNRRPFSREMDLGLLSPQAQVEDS
# Procedure: Cellular Chem-CLIP/C-Chem-CLIP to Study Occupancy of an RTK. Compound treatment and isolation of cells was completed as described for cellular occupancy studies of pre-miR-21. Total protein was extracted and concentration determined as described in the “Western Blotting” section. Approximately 1 mg of total protein was used for following pull-down experiments, using a protocol adapted from a previously published method 8. Protein cross-linked to the probe were clicked to disulfide biotin azide as described above except the amount of each reagents was doubled (20 μL/sample). Then, to the mixture was added ice-cold, 4:1 mixture of methanol/chloroform (2.5 mL) followed by 1 mL of ice-cold 1×DPBS. The mixture was centrifuged at 5000×g for 10 min at 4° C. to fractionate a protein interphase between organic and aqueous layers. […] The washed protein mixture was centrifuged at 5000×g for 10 min at 4° C. to pellet the protein. The pellet was dissolved in H2O, and to this solution was added 20 μLL streptavidin beads for 30 min at room temperature. The solution was removed, and the beads were washed once with 0.2% SDS in 1×DPBS, twice with detergent-free 1×DPBS and twice with nanopure water. After these washing steps, protein was cleaved as described above. The supernatant was collected, and protein concentration was determined with Pierce Micro BCA Protein Assay kit. […] Sample preparation was completed as described above for cellular Chem-CLIP studies. Western blotting was performed on total protein (10 μg) before or after pull-down, indicated as “Input” or “Output”, as described in Western Blotting.
smiles,measurement,setting,value
"CN1CCN(c2ccc3nc(-c4c(N)c5c(F)cccc5[nH]c4=O)[nH]c3c2)CC1 [Compound 1, Dovitinib, reference compound]",reduction of mature miR-21 levels,[1]; MDA-MB-231,not reduced
same,decrease of mature miR-21 levels,"[1]; 5 μM dose, MDA-MB-231",32±4%
same,mature miR-21 levels,[1],significantly reducing mature miR-21 levels; also recorded: reduced
same,pre-miR-21 levels,[2],increased; also recorded: enhanced
same,competition of cleavage of pre-miR-21 by RIBOTAC 2,"[2]; constant concentration of 2 (1 μM), increasing competitor",competed away cleavage
"CCOC(=O)C1=C(Nc2ccccc2)S/C(=C\c2ccc(OCCOCCOCCOCCNC(=O)NCCN3CCN(c4ccc5[nH]c(-c6c(N)c7c(F)cccc7[nH]c6=O)nc5c4)CC3)c(O)c2)C1=O [Compound 2, Ribotac-Dovitinib]",reduction of mature miR-21 levels,[1]; MDA-MB-231,~ 45±9%
same,concentration giving a reduction of mature miR-21 similar to 5 μM of 1,[1]; MDA-MB-231,200 nM
same,fold increase in potency / miR-21 inhibitory activity compared with 1,[1]; MDA-MB-231,25 fold
same,mature miR-21 levels,[1],reduced
same,cleavage of pre-miR-21 upon knock down of RNase L with an siRNA,[2]; MDA-MB-231,reduced; also recorded: repressed cleavage
same,pre-miR-21 levels,[2],decreased; also recorded: reduced
same,fold decrease / difference in cellular protein occupancy versus 1,[3],100 fold
same,competition of FLT3 enrichment by probe 4,[3]; 0.01-10 μM pre-treatment,competed off
same,IC50,"[3]; C-Chem-CLIP, MDA-MB-231, read-out: IC50 for inhibition of the Chem-CLIP probe binding to FLT3",10 µM
same,concentration competing off probe 4 from FLT3 to the same extent,[3]; probe 4 1 μM,10 µM
C#CCCC1(CCC(=O)NCCN2CCN(c3ccc4[nH]c(-c5c(N)c6c(F)cccc6[nH]c5=O)nc4c3)CC2)N=N1 [Compound 4],mature miR-21 levels,[1],decreases
same,pre-miR-21 levels,[2],increases
same,enrichment of FLT3 by probe,[3]; MDA-MB-231,enriched
